We go through 9 molecules from publication PMC11449769, “Structure-based virtual screening towards the discovery of novel thrombin inhibitors with Anti-HCC activities” (Frontiers in Chemistry, 2024).

The target of series [1] is T1, thrombin (Homo sapiens, UniProt P00734).
T1 construct: a light chain A composed of 39 amino acid residues and a heavy chain B composed of 259 amino acid residues; purchased China National Institute for the Control of Pharmaceutical and Biological Products
The experiment in a line: In vitro thrombin inhibition assay (fluorogenic substrate Ac-FVR-AMC). Format: biochemical. The procedure: Lyophilized thrombin, which was purchased from China National Institute for the Control of Pharmaceutical and Biological Products, was reconstituted (5.4 μg/mL), added to the diluted solution, and pre-incubated at 37°C for 10 min.
sample: initial velocity of compound group; VDMSO: initial velocity of blank group, treated with DMSO alone; Inhibition rate (%) = 100/[1 + 10 (LogIC50−X)h], h represents Hill coefficient.

For series [2], the system named is platelets. The experiment in a line: Thrombin-induced platelet aggregation in vitro. Format: cell-based, rats. The following applies: drugs 3 mg/mL; thrombin 0.2 U/mL. The procedure: Blood was collected from rats and centrifuged for 10mins to obtain platelet-rich plasma, which was centrifuged again to collected platelets. The platelets were resus-pended and diluted to a concentration of 5 × 10^5/mL. PRP ([…]), and thrombin ([…]) were added to the platelet suspension in each group and incubated at 37°C. After incubation for 120 s, the reaction solution was well-mixed, and the same amount of thrombin ([…]) was added to a final concentration of 0.2 U/mL.

Series [3] addresses T1, thrombin. The experiment in a line: Thrombin time. The following applies: drugs 3 mg/mL, thrombin 0.2 U/mL.
Series [4] relates to Hep3B, HepG2, HCCLM3 and HUh7 cells. The series is described as follows: Thrombin-induced accelerated proliferation of HCC cells (MTS). Format: cell-based. Conditions: 0.5 μM drug, 0.5 U/mL thrombin; for thrombin-induced accelerated proliferation of tumor cells: 12 and 36 h, 4 liver cancer cell lines. The procedure: Cell lines Hep3B, HepG2, HCCLM3 and HUh7 were purchased from Shanghai Biolaf Biotechnology Co., Ltd., and certified by short tandem repeat profiling and mycoplasma and cell vitality testing. The proliferation rate was determined using a cell proliferation assay kit (TOPSCIENCE, C0005). Briefly, cells were seeded in 96-well plates at a concentration of 10,000 cells/well. MTS was added and incubated at 37°C for 2 h. The absorbance was measured at a wavelength of 490 nm. Three independent experiments were per-formed for each assay.

Series [5] concerns HepG2 tumor. The series is described as follows: HepG2 tumor model in BALB/c nude mice. Conditions: 28 days.
Experimental: 20,000 HepG2 cells were injected into the fat pad of each female Balb/c mouse. The long and short diameters of the tumor were measured using a caliper. Medication was started when a rumor size of 100 mm^3 was reached. Sorafenib, ZXX-4, and sorafenib combined with ZXX-4 were administered for 28 days. The body weight and tumor size of the mice were measured twice a week. The mice were sacrificed after 28 days of treatment, the tumor weight was measured, and the number of metastases was counted by Indian ink staining of the lung.
Series [6] has as its system BALB/c nude mice. The experiment in a line: Single oral dose tolerance in BALB/c nude mice. Format: in vivo. The following applies: single oral administration of 500 mg/kg, 24 h.
The mark [7] stands for this setting: thrombin 5.4 μg/mL, substrate 5 μM, 37°C, read-out: IC50.

Entries after “also recorded” stand apart in the source; their conditions may differ. Counter-ions that a name gives are not always drawn. Like-named read-outs stand apart in the source and are kept apart here.

In general, IC50 refers to the concentration that gives 50% inhibition. `Fc1ccc(Cl)c(COc2cccc3onc(Nc4cccnc4)c23)c1` [ZXX-5, SMS2-IN-2]: in series [1] (setting [7]), the half-inhibitory concentration (IC50) turned out to be 45 ± 10 nM. Besides, the platelet aggregation rate entry in series [2] is on record as “less than 50%”. In series [3], the “thrombin time (in words)” value is given as “significantly prolonged”. The “thrombin-induced accelerated proliferation of tumor cells” value in series [4] is listed as “reduced to different degrees”.
`C=C(c1ccccc1OCc1cccc(Cl)c1)n1ccnc1` [ZXX-11, CROCONAZOLE] gave an IC50 in series [1] of 72 ± 20 nM. Also, in series [2], the platelet aggregation rate entry is “less than 50%”. In addition, in series [3], the “thrombin time (in words)” value was “significantly prolonged”. Besides, the “thrombin-induced accelerated proliferation of tumor cells” value in series [4] is “reduced to different degrees”.
Regarding `NCCOc1cc(C(=O)Nc2cc(OCCN)c3ccccc3n2)nc(C(=O)Nc2cc(OCCN)c3ccccc3n2)c1` [ZXX-20, Pyridostatin Trihydrochloride], the IC50 in series [1] (setting [7]) came to 98 ± 15 nM.
Take `CCCCCCOC(=O)N=C(N)c1ccc(NCc2nc3cc(C(=O)N(CCC(=O)OCC)c4ccccn4)ccc3n2C)cc1` [dabigatran etexilate, reference compound]: the platelet aggregation rate entry in series [2] was “less than 50%”. In addition, the “thrombin-induced accelerated proliferation of tumor cells” value in series [4] is reported as “reduced to different degrees”.
With `CNC(=O)c1cc(Oc2ccc(NC(=O)Nc3ccc(Cl)c(C(F)(F)F)c3)cc2)ccn1` [sorafenib, reference compound], the tumor weight result in series [5] (ZXX-4 50 mg/kg/day and/or sorafenib 30 mg/kg/day, oral) is on record as “slightly better than that of ZXX-4”.
As for “C-Reactive Protein (CRP) 201–206 acetate [ZXX-17]”, the IC50 in series [1] (setting [7]) worked out at 52 ± 9 nM. Also, the platelet aggregation rate entry in series [2] is “less than 50%”. Moreover, the “thrombin time (in words)” value in series [3] is recorded as “significantly prolonged”. Further, the “thrombin-induced accelerated proliferation of tumor cells” value in series [4] is recorded as “reduced to different degrees”.
LSKL [ZXX-2]: in series [1] (setting [7]), the IC50 was determined as 68 ± 12 nM. Moreover, the platelet aggregation rate entry in series [2] was “less than 50%”. Moreover, in series [3], the “thrombin time (in words)” value was “significantly prolonged”. The “thrombin-induced accelerated proliferation of tumor cells” value in series [4] was “reduced to different degrees”.
With Saralasin acetate [ZXX-1], in series [1] (setting [7]), the half-inhibitory concentration (IC50) came to 175 ± 18 nM.
Turning to “[Sarl, Ile8]-Angiotensin II acetate [ZXX-4]”, the IC50 in series [1] (setting [7]) stood at 23 ± 5 nM. For the same molecule, in series [2], the platelet aggregation rate result is given as “less than 50%” and the “platelet aggregation rate compared with dabigatran etexilate” value is reported as “not significant”. The “thrombin time (in words)” value in series [3] is recorded as “significantly prolonged”. In addition, in series [3] (180 s = upper limit of detection), the thrombin time is listed as 180 s. In series [4], the “relative activity on thrombin-induced proliferation” value is “highest activity, which was comparable to dabigatran etexilate” and the “thrombin-induced accelerated proliferation of tumor cells” value is reported as “reduced to different degrees”. Also, the “survival after single dose” value in series [6] is reported as “survived”. In series [5] (50 mg/kg/day oral), the HepG2 tumor growth result is “inhibited HepG2 tumor growth”. The “number of lung metastatic nodules” value in series [5] (ZXX-4 50 mg/kg/day and/or sorafenib 30 mg/kg/day, oral, Indian ink staining) is “com-parable to that of sorafenib; also recorded: reduced tumor metastasis”. Moreover, the “effect on the efficacy of sorafenib” value in series [5] (ZXX-4 50 mg/kg/day with sorafenib 30 mg/kg/day, oral) is on record as “enhanced”.
